Assays:
[1] = test system: human LECs-CCCs freshly removed from cataract operation; experiment: In situ treatment of LECs attached to capsulorhexis lens capsule (LECs-CCC); type: cell-based; conditions: 200 or 300 μm NEM in PBS
Experimental: The in situ effects of a treatment solution comprising dihydrochlorothiazide (DHCT) (a cotransport interference agent from the group of the thiazide and related diuretics) and hyperosmotic NaCl on human LECs is examined. The treatment is tested on LECs that are still attached to a continuous curvilinear capsulorhexis lens capsule (LECs-CCC) which are freshly removed from a human cataract operation.
The LECs-CCCs are obtained from a cataract operation and immediately put in freshly prepared Eagle's Minimum Essential Medium (MEM) supplemented with 2 mM glutamine, 25 mmol/L Hepes (pH 7.4) without foetal cow serum (FCS) and is transferred to the laboratory for evaluation. Viable LECs are identified by staining the LECs-CCCs for five minutes with 0.2% Trypan Blue. The sheets containing more than 70% viable LECs are used to assess the efficacy of the treatment. […]
In the first step, a hyperosmotic solution of NaCl is prepared by making a stock solution of 2 M NaCl by adding 58.44 g NaCl (supplied by Sigma Chemical Co., U.S.) to 500 ml dH2O. The desired concentration of osmotic NaCl is prepared by diluting the 2M stock solution with dH2O. For example, to make a hyperosmotic solution of 170 mM NaCl, the 2M NaCl stock solution was diluted with dH2O at a ratio of […]. To make a hyperosmotic solution of 200 mM NaCl, the 2M NaCl stock solution is diluted with dH2O at a ratio of 1 to 9. Final osmolarities (mOsm/kg/H2O) are determined by a freezing point depression method using cryoscopic osmometry.
In the second step, DHCT stock solution is made by adding 25 mg DHCT to 1 ml dH2O. […]
The treatment is applied by exposing the LECs-CCCs for five minutes in a small petri dish containing the treatment solution. The treatment solution is removed after five minutes exposure by a syringe and then the fresh PBS is added in the petri dish to wash away the treatment solution. The LECs-CCCs are washed three times. The changes of the LECS are monitored under a microscope. Microscope photographs are taken at 0, 2 and 5 minutes and after wash.

in vivo rabbit eyes [2] = experiment: In vivo prevention of PCO after cataract operation in rabbit eyes; conditions: IOLs coated with 300 μm NEM in PBS, dried overnight, inserted into the lens capsular bag
in vivo rabbit eyes [3] = experiment: as above; conditions: 200 or 300 μm NEM in PBS or 170 mM monnitol
Experimental: The experimental group includes sixteen rabbit eyes and the control group includes four rabbit eyes. A sham cataract operation is performed on the control animals. The therapy is introduced to the others.
The pupil of each rabbit eye is preoperatively dilated with topical G Phenylephrine 10% (Alcon Labs., Inc., China) and G Cyclopentolate 1% (Bausch & Lomb Pharm., Inc., USA) three times in one hour. The rabbits are anesthetized with ketamine hydrochloride (5 mg kg-1) and xylazine hydrochloride (2 mg kg-1) and placed on an operating table. A topical anesthetic (Dieaine hydrochloride 1%) is used every five minutes on two occasions. A wire lid speculum is placed to hold the eyelids open.
A 3.2 mm scleral tunnel incision into the eye is formed at the temporal limbus. The anterior chamber is maintained with viscoelastic substances and a 4-5 mm diameter continuous curvilinear capsularhexis (CCC) is made on the anterior surface of the lens to open its bag. The treatment solution is first introduced in the LECs by hydrodissection. This ensures that the treatment fluid immediately reaches under the entire anterior capsule/LECs. This process allows for (i) separation of the lens cortex from the capsule and lens epithelium, making removal of the lens cortex easier at a later stage of the operation and (ii) the LECs to be exposed to the treatment for enough time (more than five minutes in total time).
The crystalline lens is then removed using phacoemulsification (Universal II, Alcon Labs., Inc., China). The remaining cortex is aspirated thoroughly and removed as completely as possible to expose the LECs. The lens capsular bag is then partially filed with viscoelastic material in order to maintain its shape. The viscoelastic material should not cover the LECs when the treatment solution is applied.
The treatment is spread over the inner surface of the anterior capsular bag (where the LECs attach). The anterior capsular is continuously filled by using a syringe with a bent needle. Care is taken not to over flow the bag. After the treatment solution covered the capsule bag, it is left for five minutes and then removed using a syringe.
In a few cases, IOLs are inserted. […] At the same time, the incision is enlarged to 6.0 mm and a posterior ocular lens (IOLs) (poly-methyl methacrylate, PMMA) with a 6.5 mm optic is prepared and placed into the capsular bag.
The wound is closed with or without suture.
At the completion of the surgical procedure, each rabbit eye receives subconjunctival dexamethasone (0.25 ml) and gentamicin (0.25 ml). Postoperatively, atropine sulphate 1% ophthalmic solution and neomycin sulphate-polymyxin sulphate-dexamethasone ophthalmic ointment are administered twice daily for three weeks.
The animals are evaluated for three weeks and ten weeks. […] All rabbits are evaluated by slitlamp and scored for ocular responses at 1 day and at 1, 2 and 3 weeks. (See FIG. 17, Table 1.) Three and ten weeks after surgery, the animals are anesthetized using a 2 ml intramuscular injection of 11:1 mixture of ketamine hydrochloride and xylazine 20 mg/ml and then killed with a 2 ml intravenous injection of sodium pentobarbital.
The eye globes are enucleated (some of them fixed in neutral buffered formalin 10% solution for 24 hours) and are bisected coronally just anterior to the equator. Gross examination is performed to assess. PCO development. Photographs are taken from behind (Miyake-Apple posterior photographic technique) by using a digital camera fitted to an operating microscope (Leica/Wild MZ-8, Vashaw Scientific, Inc.).
The extent and severity of PCO is scored (see FIG. 17, Table 1) according to methods reported in the literature. The lens capsules are then fixed and evaluated under a microscope (Olumpus, Optical Co. Ltd.) and photographed with a digital camera.

For `CCN1C(=O)C=CC1=O` [NEM, N-ethylmaleimide], the “LEC changes after five minutes of acute exposure” value [1] was “almost no changes are observed”, the “LEC changes once put into PBS washing solution” value ([1]; after treatment) was “shrink and large gaps form between the cells. The shrunken cells then detach” and the “anterior chamber (AC) reaction” value (in vivo rabbit eyes [2]) was “significantly reduces the AC reaction”. For the same compound, the “LECs on the lens capsule bag under microscope” value (in vivo rabbit eyes [3]) was “no LECs on the lens capsule bag”, the “development of CPCO or PPCO” value (in vivo rabbit eyes [3]; 3 and 10 weeks follow up) was “no CPCO or PPCO develops” and the intraocular inflammatory reaction (in vivo rabbit eyes [3]; solution introduced directly) was “heavy intraocular inflammatory reaction in the early period and posterior synechiae”.

— patent publication US7875270B2, “Treatment solution and method for preventing posterior capsular opacification by selectively inducing detachment and/or death of lens epithelial cells” (Abbott Medical Optics Inc., priority 2002, dated 2011)
